Assay results as given in patent US8802669B2, “Dihydropyrimidine compounds and preparation methods, pharmaceutical compositions and uses thereof” (Institute of Pharmacology and Toxicology Academy of …, priority 2009, dated 2014).

How the values were obtained:
HBV DNA = assay: Antiviral activity: inhibition of HBV DNA in supernatant of HepG2.2.15 cells (dot blot hybridization); type: cell-based, hepatitis B virus; settings: for IC50: Hepatitis B virus, HepG2.2.15 cells, 8 days (2 x 4 days) incubation, read-out: IC50 (Inhibitory effect on HBV DNA); for SI: selectivity index, TC50 against IC50, HepG2.2.15 cells
Procedure: The antiviral activity of the compounds according to the present invention was tested following the methods described by Sells et al. (M. A. Sells, M. L. Chen, g. Acs, Proc. Natl. Acad. Sci., 1987, 84, 1005-1009) and Korba et al., (B. E. Korba, J. L. Gerin, Antiviral Research, 1992, 19. 55-70).
(§1) The antiviral tests were carried out in 96-well microtitre plates. Only growth medium and HepG2.2.15 cells were added to the first vertical row of the plate, which row severed as a blank control.
(§2) Stock solutions of the test compounds (50 mM) were initially dissolved in DMSO, and further dilutions were prepared in the growth medium of HepG2.2.15. The compounds according to the present invention, usually in a test concentration of 100 μg/ml (1st test concentration), were in each case pipetted into the second vertical test row of the microtitre plate and subsequently diluted by a factor of 2 each time, up to 2^10-fold, using growth medium plus 2% of foetal calf serum (volume 25 μl).
(§3) 225 μl of a HepG2.2.15 cell suspension (5×10^4 cells/ml) in growth medium plus 2% foetal calf serum were then added to each well of the microtitre plate.
(§4) The test batch was incubated at 37° C., 5% CO2 for 4 days. The supernatant was subsequently siphoned off and discarded, and 225 μl of freshly prepared growth medium were added to the wells. Once more, the compounds according to the present invention were added, in a volume 25 μl. The batches were incubated fro another 4 days.
The supernatants were subsequently harvested and, by means of reduced pressure, siphoned onto 96-well dot blot chambers covered with a nylon membrane (in accordance with the specification provided by the manufacturer).
After transfer of the supernatants onto the nylon membrane of the blot apparatus (see above), the supernatants of the HepG2.2.15 cells were denatured (1.5 M NaCl/0.5 N NaOH), neutralized (3 M […]/0.5 M Tris HCl, pH 7.5) and washed (2×SSC). By incubation of the filters at 120° C. for 2-4 hours, the DNA was subsequently baked onto the membrane.
The viral DNA of the treated HEpG2.2.15 cells on the nylon filter membrane was usually detected using non-radioactive digoxygenin-labelled hepatitis B-specific DNA probes which were in each case in accordance with the specifications of the manufacturer labelled with digoxygenin, purified and used for hybridization.
Briefly speaking, the prehybridization and hybridization were carried out in 5×SSC, 1×blocking reagent, 0.1% N-lauroylsacosine, 0.02% SDS and 100 μg of DNA from herring sperm. The prehybridization was carried out at 60° C. for 30 minutes and the specific hybridization was carried out using 20 to 40 ng/ml of the digoxygenated denatured HBV-specific DNA (14 hours, 60° C.). The fillers were subsequently washed, and then determination of HBV DNA by digoxygenin antibodies was carried out.
The digoxygenin-labelled DNA was detected immunologically in accordance with the specifications of the manufacturer.
Briefly speaking, the fillers were washed and prehybridized in a blocking agent (in accordance with the specifications of the manufacturer). They were subsequently hybridized for 30 minutes using an anti-DIG antibody linked to alkaline phosphatase. After a washing step, the substrate of alkaline phosphatase, CSPD, was added, incubated with the filters for 5 minutes, subsequently wrapped in plastic film and incubated at 37° C. for a further 15 minutes. The chemiluminescene of the Hepatitis B-specific DNA signals was visualized by exposition of the filters on an X-ray film (incubation, depending on the signal strength: 10 minutes to 2 hours). The half-maximum inhibitory concentration (IC50) was determined.
The half-maximum inhibitory concentration (IC50) means the concentration at which the hepatitis B-specific band was reduced by 50% in comparison with an untreated sample by the compound according to the present invention.

[1] = Cytotoxicity in HepG2.2.15 cells (cell morphology, Reed & Muench); type: cell-based; settings: human, pathological changes observed by microscope after 8 days, read-out: TC50
Procedure: as §1, §2, §3, §4
Before the supernatants were harvested for determining the antiviral effect, the HePG2.2.15 cells were examined under the light microscope or by biochemical detection methods (for example Alamar Blue staining or Trypan Blue staining) for cytotoxic changes.
Substances-induced cytotoxic or cytostatic changes in the HepG2.2.15 cells were determined as changes in the cell morphology, for example under a light microscope. Such substance-induced changes of the HepG2.2.15 cells in comparison with untreated cells was apparent, for example, as cell lysis, vacuolization changed cell morphology. The pathological changes were observed by microscope after 8 days as index, a complete destroy being indicated as 4, 75% as 3, 50% as 2, 25% as 1, and no pathological change as 0. The average pathological change degree and inhibited percentages at various concentration were calculated, and a half-maximum toxic concentration (TC50) and a maximum non-toxic concentration […] were determined according to Reed & Muench methods.
TC50 means the concentration at which 50% of the cells have a morphology which is […] to the corresponding cell control by the compounds according to the present invention.

[2] = Solubility of the hydrochloride solid in solvents; type: physicochemical
Procedure: 0.18 g of the target compound obtained in Example 5 was dissolved in 2 ml of anhydrous ethanol, a solution of hydrogen chloride in ethyl-ether was added dropwise to precipitate a solid, and filtered to give 0.19 g of an off-white powdered solid.

Structure (SMILES)	IC50 (HBV DNA) [µM]	SI (HBV DNA)	CC50 at 8 days [1] [µM]	solubility in dichloromethane, ethyl acetate, acetone, and the like ([2]; dichloromethane, ethyl acetate, acetone)	solubility in methanol and ethanol ([2]; methanol and ethanol)	solubility in water ([2]; water)
CCOC(=O)C1=C(CN2CCN(CC)CC2)NC(c2c(F)cc(F)cc2F)=NC1c1ccc(F)cc1Cl (stereo not drawn) [Example 8, ethyl 2-(2,4,6-trifluorophenyl)-4-(2-chloro-4-fluorophenyl)-6-(4-ethylpiperazin-1-ylmethyl)-1,4-dihydropyrimidine-5-carboxylate]	6.7	6.16	41			
CCOC(=O)C1=C(CN2CCOCC2)N=C(c2c(F)cc(F)cc2N2CCOCC2)NC1c1ccc(F)cc1Cl (stereo not drawn) [Example 13, ethyl 2-[2,4-difluoro-6-(morpholin-1-yl)phenyl]-4-(2-chlor-4-fluorophenyl)-6-(morpholine-1-ylmethyl)-1,4-dihydropyrimidine-5-carboxylate]	4.4	12.72	55			
CCOC(=O)C1=C(CN2CCOCC2)NC(c2c(F)cc(F)cc2F)=NC1c1ccc(F)cc1Cl.Cl (stereo not drawn) [Example 18, ethyl 2-(2,4,6-trifluorophenyl)-4-(2-chloro-4-fluorophenyl)-6-(morpholin-1-ylmethyl)-1,4-dihydropyrimidine-5-carboxylate hydrochloride]	2.4	13.37	31	insoluble	soluble slightly	greatly soluble
CCOC(=O)C1=C(CN(CCO)CCO)NC(c2c(F)cc(F)cc2F)=NC1c1ccc(F)cc1Cl (stereo not drawn) [Example 15, ethyl 2-(2,4,6-trifluorophenyl)-4-(2-chloro-4-fluorophenyl)-6-diethanolaminomethyl-1,4-dihydropyrimidine-5-carboxylate]	6.7	8.11	54			
